Data reported in patent US20260274895A1, “DE NOVO DESIGNED MEMBRANE-TRAVERSING AND ORALLY BIOAVAILABLE MACROCYCLES” (UNIVERSITY OF WASHINGTON, priority 2022, published 2026).
Where a SMILES comes first, the peptide text is derived from it. [ ]: non-standard residue; d: D form. NMeF = CN[C@@H](Cc1ccccc1)C(=O)O; dNMeF = CN[C@H](Cc1ccccc1)C(=O)O; NMeL = CN[C@@H](CC(C)C)C(=O)O; dNMeL = CN[C@H](CC(C)C)C(=O)O; dNMeV = CN[C@@H](C(=O)O)C(C)C; NMeV = CN[C@H](C(=O)O)C(C)C; NMeA = CN[C@@H](C)C(=O)O; dNMeA = CN[C@H](C)C(=O)O; Aib = CC(C)(N)C(=O)O

Conditions: not given

In the case of `CC(C)C[C@@H]1NC(=O)[C@@H](CC(C)C)NC(=O)[C@H]2CCCN2C(=O)[C@H](CC(C)C)NC(=O)[C@@H](CC(C)C)NC(=O)[C@H](CC(C)C)NC(=O)[C@@H]2CCCN2C(=O)[C@@H](C)NC1=O` [Design D8.1, lLplLaPL] (cyclo(L[dA]PL[dL]L[dP][dL])), the “membrane permeability in PAMPA (in words)” value is reported as “most permeable 8 residue design in PAMPA”.
With `CC(C)C[C@@H]1NC(=O)[C@H]2CCCN2C(=O)[C@H](CC(C)C)N(C)C(=O)[C@@H](C(C)C)NC(=O)[C@H](CC(C)C)NC(=O)[C@H]2CCCN2C(=O)[C@H](CC(C)C)N(C)C(=O)[C@@H](C(C)C)NC1=O` [Design D8.21, v*LpLv*LpL] (cyclo(L[dV][NMeL][dP]L[dV][NMeL][dP])) the “membrane permeability in PAMPA (in words)” value was “significant permeability”.

Same assay, conditions: PAMPA

In order of rising “PAMPA_Papp_Avg (apparent permeability)” value:
1. CC(C)C[C@@H]1C(=O)N[C@@H](C(C)C)C(=O)N[C@@H](C)C(=O)N2CCC[C@H]2C(=O)N2CCC[C@@H]2C(=O)N[C@@H](C(C)C)C(=O)N[C@@H](C)C(=O)N(C)[C@@H](CC(C)C)C(=O)N1C [Design D8.22, APpVA*L*lV] (cyclo(A[NMeL][dNMeL]VAP[dP]V))  0.215 ×10⁻⁶ cm/s
2. CC(C)[C@H]1NC(=O)[C@@H]2CCCN2C(=O)[C@@H](C)NC(=O)[C@@H](Cc2ccccc2)NC(=O)[C@@H]2CCCN2C(=O)[C@H](Cc2ccccc2)NC1=O [Design D6.7, faPvFP] (cyclo(FP[dF][dA]P[dV]))  0.424 ×10⁻⁶ cm/s
3. CC(C)C[C@@H]1C(=O)N[C@H](C)C(=O)N(C)[C@H](CC(C)C)C(=O)N2CCC[C@@H]2C(=O)N[C@H](CC(C)C)C(=O)N[C@@H](C)C(=O)N[C@H](CC(C)C)C(=O)N2CCC[C@@H]2C(=O)N1C [Design D8.25, lp*la*lplA] (cyclo(A[dL][dP][dNMeL][dA][dNMeL][dP][dL]))  0.824 ×10⁻⁶ cm/s
4. CC(C)C[C@@H]1C(=O)N(C)[C@@H](CC(C)C)C(=O)N2CCC[C@@H]2C(=O)N[C@H](CC(C)C)C(=O)N[C@H](C)C(=O)N2CCC[C@@H]2C(=O)N2CCC[C@H]2C(=O)N[C@@H](C)C(=O)N[C@H](Cc2ccccc2)C(=O)N[C@H](CC(C)C)C(=O)N[C@@H](C(C)C)C(=O)N1C (single isomer, unassigned) [Design D11.9.p1, V*l*LplapPAfl]  0.879 ×10⁻⁶ cm/s
5. CC[C@@H](C)[C@H]1NC(=O)[C@@H]2CCCN2C(=O)[C@@H](CC(C)C)N(C)C(=O)[C@@H](C(C)C)NC(=O)[C@@H]2CCCN2C(=O)[C@@H](CC(C)C)N(C)C(=O)[C@H](C)N(C)C(=O)[C@@H](C)NC1=O [Design D8.18, ia*A*lPv*lP] (cyclo([NMeA][dNMeL]P[dV][dNMeL]P[dI][dA]))  1.04 ×10⁻⁶ cm/s
6. CC(C)C[C@@H]1C(=O)N(C)[C@H](Cc2ccccc2)C(=O)N(C)[C@@H](CC(C)C)C(=O)N[C@H](C(C)C)C(=O)N[C@H](C)C(=O)N2CCC[C@@H]2C(=O)N2CCC[C@H]2C(=O)N[C@H](C)C(=O)N1C [Design D8.20, Pa*l*f*Lvap] (cyclo([dA][dNMeL][dNMeF][NMeL][dV][dA][dP]P))  1.08 ×10⁻⁶ cm/s
7. CC(C)C[C@@H]1C(=O)N[C@H](CC(C)C)C(=O)N2CCC[C@@H]2C(=O)N2CCC[C@@H]2C(=O)N(C)[C@@H](C)C(=O)N[C@H](Cc2ccccc2)C(=O)N[C@@H](C)C(=O)N(C)[C@@H](CC(C)C)C(=O)N1C [Design D8.10, pp*AfA*L*ll] (cyclo(A[NMeL][dNMeL][dL][dP][dP][NMeA][dF]))  1.23 ×10⁻⁶ cm/s
8. CC(C)C[C@@H]1C(=O)N(C)[C@H](CC(C)C)C(=O)N[C@H](CC(C)C)C(=O)N[C@@H](C(C)C)C(=O)N2CCC[C@@H]2C(=O)N2CCC[C@H]2C(=O)N[C@H](CC(C)C)C(=O)N[C@@H](C(C)C)C(=O)N1C [Design D8.23, lV*l*llVpP] (cyclo([dL]V[dNMeL][dNMeL][dL]V[dP]P))  1.28 ×10⁻⁶ cm/s
9. CC(C)[C@@H]1C(=O)N[C@@H](Cc2ccccc2)C(=O)N2CCC[C@H]2C(=O)N(C)[C@H](Cc2ccccc2)C(=O)N[C@H](C)C(=O)N2CCC[C@H]2C(=O)N1C (single isomer, unassigned) [Design D6.8.p2, *faP*vFP]  1.77 ×10⁻⁶ cm/s
10. CC(C)C[C@H]1NC(=O)[C@@H]2CCCN2C(=O)[C@@H]2CCCN2C(=O)[C@@H](C)NC(=O)[C@@H](Cc2ccccc2)NC(=O)[C@H]2CCCN2C1=O [Design D6.3, pfaPpl] (cyclo(PP[dL][dP][dF][dA]))  1.99 ×10⁻⁶ cm/s
11. CC(C)C[C@@H]1C(=O)N(C)[C@@H](CC(C)C)C(=O)N2CCC[C@@H]2C(=O)N[C@H](CC(C)C)C(=O)N[C@H](C)C(=O)N2CCC[C@@H]2C(=O)N2CCC[C@H]2C(=O)N[C@@H](C)C(=O)N[C@H](Cc2ccccc2)C(=O)N[C@H](CC(C)C)C(=O)N[C@@H](C(C)C)C(=O)N1C (single isomer, unassigned) [Design D11.9.p2, V*l*LplapPAfl]  2.09 ×10⁻⁶ cm/s
12. CC[C@H](C)[C@@H]1NC(=O)[C@@H](C(C)C)NC(=O)[C@H](CC(C)C)N(C)C(=O)[C@H]2CCCN2C(=O)[C@H]2CCCN2C(=O)[C@H](C(C)C)NC(=O)[C@@H](CC(C)C)NC(=O)[C@H]2CCCN2C1=O [Design D8.16, plVpp*LvI] (cyclo(I[dP][dL]V[dP][dP][NMeL][dV]))  2.16 ×10⁻⁶ cm/s
13. CC(C)[C@@H]1NC(=O)[C@@H]2CCCN2C(=O)[C@@H]2CCCN2C(=O)[C@@H](Cc2ccccc2)NC(=O)[C@@H]2CCCN2C(=O)[C@@H](Cc2ccccc2)NC1=O [Design D6.5, PPVfPf] (cyclo(PPV[dF]P[dF]))  2.41 ×10⁻⁶ cm/s
14. CC[C@H](C)[C@@H]1NC(=O)[C@H]2CCCN2C(=O)[C@@H]2CCCN2C(=O)[C@H](CC(C)C)NC(=O)[C@@H](C(C)C)NC(=O)[C@@H](CC(C)C)N(C)C(=O)[C@@H]2CCCN2C1=O [Design D7.1, P*lvLPpI] (cyclo(IP[dNMeL][dV]LP[dP]))  2.93 ×10⁻⁶ cm/s
15. CC[C@@H](C)[C@H]1NC(=O)[C@@H](Cc2ccccc2)NC(=O)[C@@H]2CCCN2C(=O)[C@@H]([C@H](C)CC)NC(=O)[C@@H](Cc2ccccc2)NC(=O)[C@@H]2CCCN2C1=O [Design D6.1, iPfiPf] (cyclo(P[dF][dI]P[dF][dI]))  3.34 ×10⁻⁶ cm/s
16. CC(C)C[C@@H]1NC(=O)[C@H]2CCCN2C(=O)[C@@H]2CCCN2C(=O)[C@H](CC(C)C)NC(=O)[C@@H](CC(C)C)NC(=O)[C@@H](C)N(C)C(=O)[C@@H](C)N(C)C(=O)[C@@H](C(C)C)NC1=O [Design D8.6, LPpLv*a*al] (cyclo(LP[dP]L[dV][dNMeA][dNMeA][dL]))  3.35 ×10⁻⁶ cm/s
17. CC(C)C[C@@H]1NC(=O)[C@@H]2CCCN2C(=O)[C@H]2CCCN2C(=O)[C@H](CC(C)C)NC(=O)[C@H](C)N(C)C(=O)[C@H]2CCCN2C(=O)[C@@H](CC(C)C)NC1=O [Design D7.6, lp*ALpPL] (cyclo(L[dL][dP][NMeA]L[dP]P))  3.62 ×10⁻⁶ cm/s
18. CC(C)[C@H]1C(=O)N[C@H](Cc2ccccc2)C(=O)N2CCC[C@H]2C(=O)N[C@H](Cc2ccccc2)C(=O)N2CCC[C@H]2C(=O)N2CCC[C@H]2C(=O)N1C [Design D6.6, PP*VfPf] (cyclo([NMeV][dF]P[dF]PP))  3.64 ×10⁻⁶ cm/s
19. CC[C@@H](C)[C@H]1NC(=O)[C@@H](CC(C)C)N(C)C(=O)[C@@H]2CCCN2C(=O)[C@@H]([C@H](C)CC)NC(=O)[C@@H](CC(C)C)NC(=O)[C@@H](CC(C)C)N(C)C(=O)[C@@H]2CCCN2C(=O)[C@@H](C(C)C)NC1=O [Design D8.8, P*lliP*liv] (cyclo(P[dNMeL][dI][dV]P[dNMeL][dL][dI]))  5.9 ×10⁻⁶ cm/s
20. CC(C)C[C@@H]1NC(=O)[C@@H](CC(C)C)NC(=O)[C@H]2CCCN2C(=O)[C@@H]2CCCN2C(=O)[C@@H](CC(C)C)NC(=O)[C@@H](CC(C)C)N(C)C(=O)[C@@H]2CCCN2C1=O [Design D7.5, LP*llPpl] (cyclo(LP[dNMeL][dL]P[dP][dL]))  6.64 ×10⁻⁶ cm/s
21. CC(C)C[C@H]1C(=O)N2CCC[C@@H]2C(=O)N[C@@H](Cc2ccccc2)C(=O)N2CCC[C@H]2C(=O)N[C@H](C(C)C)C(=O)N[C@H](Cc2ccccc2)C(=O)N1C (single isomer, unassigned) [Design D6.9.p2, vf*LpFP]  6.77 ×10⁻⁶ cm/s
22. CC(C)C[C@@H]1NC(=O)[C@@H](CC(C)C)NC(=O)[C@H]2CCCN2C(=O)[C@H](CC(C)C)NC(=O)[C@@H](CC(C)C)NC(=O)[C@H](CC(C)C)NC(=O)[C@@H]2CCCN2C(=O)[C@@H](C)NC1=O [Design D8.1, lLplLaPL] (cyclo(L[dA]PL[dL]L[dP][dL]))  6.94 ×10⁻⁶ cm/s
23. CC[C@H](C)[C@@H]1NC(=O)[C@H](Cc2ccccc2)N(C)C(=O)[C@H]2CCCN2C(=O)[C@H]([C@@H](C)CC)NC(=O)[C@H](C(C)C)NC(=O)[C@@H](C)NC(=O)[C@H]2CCCN2C1=O [Design D7.9, VIp*FIpa] (cyclo(I[dP][NMeF]I[dP][dA]V))  7.09 ×10⁻⁶ cm/s
24. CC[C@@H](C)[C@H]1NC(=O)[C@@H](CC(C)C)NC(=O)C(C)(C)NC(=O)[C@@H]2CCCN2C(=O)[C@@H]([C@H](C)CC)NC(=O)[C@@H](CC(C)C)NC(=O)C(C)(C)NC(=O)[C@@H]2CCCN2C1=O [Design D8.2, PBliPBLi] (cyclo([Aib][dL][dI]P[Aib][dL][dI]P))  7.49 ×10⁻⁶ cm/s
25. CC(C)C[C@H]1C(=O)N2CCC[C@@H]2C(=O)N[C@@H](Cc2ccccc2)C(=O)N2CCC[C@H]2C(=O)N(C)[C@H](C(C)C)C(=O)N[C@H](Cc2ccccc2)C(=O)N1C [Design D6.10, *vf*LpFP] (cyclo(FP[dNMeV][dF][NMeL][dP]))  11.6 ×10⁻⁶ cm/s
26. CC[C@@H](C)[C@H]1NC(=O)[C@@H](Cc2ccccc2)N(C)C(=O)[C@@H]2CCCN2C(=O)[C@@H]([C@H](C)CC)NC(=O)[C@@H](Cc2ccccc2)N(C)C(=O)[C@@H]2CCCN2C1=O [Design D6.2, iP*fiP*f] (cyclo(P[dNMeF][dI]P[dNMeF][dI]))  12.2 ×10⁻⁶ cm/s
27. CC(C)C[C@H]1NC(=O)[C@@H]2CCCN2C(=O)[C@@H]2CCCN2C(=O)[C@@H](C)NC(=O)[C@@H](Cc2ccccc2)N(C)C(=O)[C@H]2CCCN2C1=O [Design D6.4, p*faPPl] (cyclo(PP[dL][dP][dNMeF][dA]))  13.9 ×10⁻⁶ cm/s
